For experiment [1], the system named is NR1a/NR2B NMDAR expressed in HEK293 cells. Format: cell-based, rat. Particulars: pH 7.35.
For experiment [2], the system named is NR1b/NR2B NMDAR expressed in HEK293 cells. The format is cell-based, rat. The conditions noted are these: pH 7.35.
For experiment [3], the system named is NR1b/NR2A NMDAR expressed in HEK293 cells. The format is cell-based, rat. Particulars: pH 7.35.
Experiment [4] relates to NR1a/NR2A NMDAR expressed in HEK293 cells. Format: cell-based, rat. Particulars: pH 7.35.
Experiment [5] deals with NR2A-containing NMDAR complexes. Format: cell-based, rat.
The subject of experiment [6] is NR2B-containing NMDAR. Format: cell-based, rat.
Experiment [7] relates to NR1b/NR2B NMDAR expressed in HEK293 cells. The conditions noted are these: cited from earlier work.
Experiment [8] has as its system NR1a/NR2A NMDAR expressed in HEK293 cells. Particulars: cited from earlier work.
Experiment [9] has as its system NR1a/NR2B NMDAR expressed in HEK293 cells. Particulars: cited from earlier work.
In experiment [10] the test system is NR1b/NR2A NMDAR expressed in HEK293 cells. Particulars: cited from earlier work.

Like-named read-outs stand apart in the source and are kept apart here. Bounds are passed on as bounds.

In the case of “GEγγLAKNA AγLARγNI(NH2) [con-R′ [V5L/ΔA10]]”, in [1], the “% maximal inhibition, 1a/2B” value stood at 69 ± 4%. In addition, the “% maximal inhibition, 1b/2B” value in experiment [2] is reported as 71 ± 3%. In [3], the “% maximal inhibition, 1b/2A” value worked out at 0%. The “% maximal inhibition, 1a/2A” value in experiment [4] turned out to be 0%.
In the case of GEγγLQANQγLIRγKSN(NH2) [con-G[γ7A]], the “% maximal inhibition, 1a/2B” value in experiment [1] was 90 ± 4%. Also, the “% maximal inhibition, 1b/2B” value in [2] was found to be 95 ± 3%. Also, the “% maximal inhibition, 1b/2A” value in experiment [3] is reported as 0%. The “% maximal inhibition, 1a/2A” value in [4] came to 0%.
On to GEγγLQKMLγNLRγAEVKKNA(NH2) [con-T[Y5L]], for which the “% maximal inhibition, 1a/2B” value in experiment [1] is reported as 85 ± 3%. Besides, the “% maximal inhibition, 1b/2B” value in experiment [2] is 90 ± 6%. The “% maximal inhibition, 1b/2A” value in experiment [3] is on record as 86 ± 7%. In addition, the “% maximal inhibition, 1a/2A” value in experiment [4] came to 80 ± 6%.
Take GEγγLQKNQγLIRγKSN(NH2) [con-G[γ7K]]: in [1], the “% maximal inhibition, 1a/2B” value was 82 ± 5%. The “% maximal inhibition, 1b/2B” value in experiment [2] was 94 ±2%. Besides, the “% maximal inhibition, 1b/2A” value in experiment [3] worked out at 0%. Also, the “% maximal inhibition, 1a/2A” value in experiment [4] is given as 0%.
GEγγLQγNQγNLRγAEVKKNA(NH2) [con-G/T]: the “% maximal inhibition, 1a/2B” value in [1] came out at 80 ± 5%. In addition, the “% maximal inhibition, 1b/2B” value in experiment [2] was found to be 86 ± 4%. In experiment [3], the “% maximal inhibition, 1b/2A” value came to 0%. Further, the “% maximal inhibition, 1a/2A” value in [4] is 0%. In addition, in experiment [5], the “inhibition of NR2A-containing NMDAR complexes” value was “no inhibition”. Also, in experiment [6], the “maximal inhibition of NR2B-containing NMDAR” value is reported as over 80%.
GEγγVAAMAAγLARγNI(NH2) [con-R′ [K7A]]: the “% maximal inhibition, 1a/2B” value in experiment [1] is recorded as 91 ± 3%. In [2], the “% maximal inhibition, 1b/2B” value amounted to 95 ± 2%. Further, the “% maximal inhibition, 1b/2A” value in experiment [3] is reported as 93 ± 4%. Besides, the “% maximal inhibition, 1a/2A” value in experiment [4] came to 93 ± 3%.
For GEγγVAKAAAγLARγNI(NH2) [con-R′ [M8A]], the “% maximal inhibition, 1a/2B” value in [1] was determined as 85 ± 3%. In experiment [2], the “% maximal inhibition, 1b/2B” value is 88 ± 4%. Moreover, the “% maximal inhibition, 1b/2A” value in experiment [3] came to 0%. Moreover, in [4], the “% maximal inhibition, 1a/2A” value was found to be 0%.
Regarding GEγγVAKMA AγLARγNI(NH2) [con-R′ [ΔA10]], the “% maximal inhibition, 1a/2B” value in experiment [1] is listed as 55 ± 6%. In addition, the “% maximal inhibition, 1b/2B” value in experiment [2] is listed as 65 ± 5%. Besides, the “% maximal inhibition, 1b/2A” value in experiment [3] is 0%. In addition, the “% maximal inhibition, 1a/2A” value in [4] is given as 0%.
With GEγγVAKNAAγLARγNI(NH2) [con-R′ [M8N]], in experiment [1], the “% maximal inhibition, 1a/2B” value amounted to 53 ± 5%. In addition, the “% maximal inhibition, 1b/2B” value in [2] is on record as 66 ± 5%. Also, in experiment [3], the “% maximal inhibition, 1b/2A” value was 60 ± 7%. In addition, the “% maximal inhibition, 1a/2A” value in experiment [4] is 45 ± 6%.
GEγγVQKMAAγLARγNI(NH2) [con-R′ [A6Q]]: in [1], the “% maximal inhibition, 1a/2B” value came out at 84 ± 5%. Also, the “% maximal inhibition, 1b/2B” value in experiment [2] came to 90 ± 4%. In addition, in [3], the “% maximal inhibition, 1b/2A” value worked out at 72 ± 6%. Also, in [4], the “% maximal inhibition, 1a/2A” value was 50 ± 7%.
On to “GEγγVQKMQAγLARγNI(NH2) [con-R′ [A6Q/A9Q]]”, for which the “% maximal inhibition, 1a/2B” value in [1] came to 70 ± 6%. Moreover, the “% maximal inhibition, 1b/2B” value in [2] is 79 ± 5%. In experiment [3], the “% maximal inhibition, 1b/2A” value is reported as 25 ± 5%. Besides, the “% maximal inhibition, 1a/2A” value in [4] was 0%.
On to “GEγγYAKNA AγLARγNI(NH2) [con-R′ [V5Y/ΔA10]]”, for which the “% maximal inhibition, 1a/2B” value in [1] worked out at 87 ± 5%. Further, in experiment [2], the “% maximal inhibition, 1b/2B” value was determined as 90 ± 3%. The “% maximal inhibition, 1b/2A” value in experiment [3] is 84 ± 4%. For the same substance, the “% maximal inhibition, 1a/2A” value in [4] amounted to 82 ± 6%.
GEγγYQAMLγNLRγAEVKKNA(NH2) [con-T[K7A]]: the “% maximal inhibition, 1a/2B” value in experiment [1] was 85 ± 5%. Moreover, in [2], the “% maximal inhibition, 1b/2B” value is 94 ± 2%. In experiment [3], the “% maximal inhibition, 1b/2A” value is reported as 91 ± 3%. Moreover, the “% maximal inhibition, 1a/2A” value in experiment [4] worked out at 93 ± 2%.
For the substance “GEγγYQKALAγNLRγAEVKKNA(NH2) [con-T[M8A/+A10]]”, the “% maximal inhibition, 1a/2B” value in [1] was found to be 63 ± 4%. In [2], the “% maximal inhibition, 1b/2B” value is reported as 67 ± 5%. Further, the “% maximal inhibition, 1b/2A” value in [3] is 0%. The “% maximal inhibition, 1a/2A” value in [4] turned out to be 0%.
In the case of GEγγYQKALγNLRγAEVKKNA(NH2) [con-T[M8A]], the “% maximal inhibition, 1b/2B” value in experiment [7] is listed as 81 ± 5%. For the same substance, in [8], the “% maximal inhibition, 1a/2A” value is 0%. In experiment [9], the “% maximal inhibition, 1a/2B” value is reported as 73 ± 8%. Moreover, the “% maximal inhibition, 1b/2A” value in [10] is 0%.
GEγγYQKGLγNLRγAEVKKNA(NH2) [con-T[M8G]]: in experiment [1], the “% maximal inhibition, 1a/2B” value is recorded as 80 ± 5%. Also, the “% maximal inhibition, 1b/2B” value in experiment [2] amounted to 84 ± 4%. The “% maximal inhibition, 1b/2A” value in experiment [3] was 0%. Besides, the “% maximal inhibition, 1a/2A” value in experiment [4] is reported as 0%.
As to GEγγYQKMAγNLRγAEVKKNA(NH2) [con-T[L9A]], the “% maximal inhibition, 1a/2B” value in experiment [1] was 92 ± 5%. For the same substance, in [2], the “% maximal inhibition, 1b/2B” value came to 95 ± 2%. Besides, the “% maximal inhibition, 1b/2A” value in experiment [3] was 91 ± 3%. Further, in experiment [4], the “% maximal inhibition, 1a/2A” value worked out at 93 ± 2%.
Regarding GEγγYQKNLγNLRγAEVKKNA(NH2) [con-T[M8N]], the “% maximal inhibition, 1b/2B” value in experiment [7] is recorded as 90 ± 4%. Moreover, in [8], the “% maximal inhibition, 1a/2A” value is 48 ± 6%. Also, the “% maximal inhibition, 1a/2B” value in experiment [9] was 82 ± 5%. Also, the “% maximal inhibition, 1b/2A” value in [10] is on record as 56 ± 7%.
Regarding GEγγYQγMLγNLRγAEVKKNA(NH2) [con-T[K7γ]], in experiment [1], the “% maximal inhibition, 1a/2B” value worked out at 86 ± 5%. The “% maximal inhibition, 1b/2B” value in experiment [2] stood at 90 ± 2%. For the same substance, the “% maximal inhibition, 1b/2A” value in [3] was 82 ± 6%. The “% maximal inhibition, 1a/2A” value in [4] stood at 78 ± 4%.
